Literature values, collected in patent US11077096B2, “Modified release compositions comprising tacrolimus” (Veloxis Pharmaceuticals A/S, priority 2003, dated 2021).

Legend:
[1] = not given; remark: listed apart in the source

bioavailability (after oral administration): ≤ 20% | mean time-to-peak concentration (tmax) (oral administration, healthy subjects or kidney or liver transplanted patients): 1 to 2 h | Solubility in chloroform ([1]; chloroform): very soluble | Solubility in ethanol ([1]; ethanol): freely soluble | Solubility in methanol ([1]; methanol): very soluble | Solubility in water ([1]; water): practically insoluble
Compound: C=CC[C@@H]1/C=C(\C)C[C@H](C)C[C@H](OC)[C@H]2O[C@@](O)(C(=O)C(=O)N3CCCC[C@H]3C(=O)OC(/C(C)=C/[C@@H]3CC[C@@H](O)[C@H](OC)C3)[C@H](C)[C@@H](O)CC1=O)[C@H](C)C[C@@H]2OC (stereo partly drawn) [Tacrolimus]
